According to patent publication US8258258B2, “Dimeric or multimeric microproteins” (BioNTech AG, priority 2005, dated 2012):

Experiments:
TPOR/4Rα hybrid receptor = experiment: Ba/F3 luciferase reporter gene assay, TPO competition (antagonist activity); format: cell-based, human; conditions: 5 nM TPO and 500 nM of each compound; FIG. 3
Description: The expression vector for the TPOR/4Rα hybrid receptor, pcDNATPOR/4Rα, was constructed as follows. A PCR reaction was performed on a cDNA clone containing the human TPO receptor coding sequence using oligonucleotides TpoR-Xho-lo (5′-[…]-3′; SEQ ID NO.: 18) and TpoR-Xho-up (5′-[…]-3′; SEQ ID No.: 19). The resulting PCR product was digested with XhoI and ligated into similarly digested vector pASKcDNA-NH to yield pASKcDNA-NH-TPOR. pASKcDNA-NH resulted from the subcloning of an NheI/HindIII fragment of pcDNA/4Rα (Krause et al., 2004) in pASK21TETIsendc1/2 (Christmann et al., 1999). From the vector pASKcDNA-NH-TPOR the NheI/HindIII fragment containing the TPOR coding sequence was ligated to similarly digested pcDNA/4Rα to yield pcDNATPOR/4Rα. The STAT6 reporter gene construct pIεTATALuc was generated by insertion of a synthetic Hind III/Bam HI fragment representing the entire promoter/enhancer-sequence from the IL-4 responsive region of the human Iε promoter (Ezernieks et al., 1996) into luciferase expression plasmid pTATALuc+ (Altschmied et al., 1997).
The murine pre-B cell line Ba/F3 was cultured as described (Lischke et al., 1995). Cells were transfected using the cell line Nucleofector™ kit V (Amaxa, Germany). Briefly, 8×10^6 cells were starved for 2 h in RPMI 1640/10% FCS, centrifuged and resuspended in 100 μl of transfection reagent V supplemented with 4 μg of expression vector pcDNATPOR/4Rα and 1 μg of reporter gene construct pIεTATALuc. Transfection was performed with the Nucleofector™ device applying program T16. Each transfection batch was recovered in 3.5 ml RPMI 1640/10% FCS and seeded at 2×10^5 cells/100 μl per well in a 96-well cell culture plate. Cells were left untreated for 1 h and then supplemented with various concentrations of hTPO (Immunotools, Germany) and individual microprotein candidates, respectively, to a total volume of 200 μl. For TPO competition assays cell aliquots were preincubated with individual microprotein samples 1 hour before stimulation with hTPO. After incubation for 12 h at 37° C., 5% CO2, cell lysates were prepared and luciferase activity was measured as described previously (Krause et al., 2004).
These cells were transfected with a gene encoding a fusion of the hTPOR extracellular domain and the intracellular 4Rα domain from human […] and co-transfected with a reporter gene construct pIεTATALuc (Krause et al., 2004). […] The same result was obtained for SE-AG-TP-040 in some assays. On the other hand, agonistic activity was shown for all the microproteins so far tested (Table 1).

platelet count = experiment: In vivo platelet expansion test; conditions: Balb/c mice, 10 and 1000 μg/kg twice daily s.c., after 5 days; FIG. 7
Description: To assess the in vivo function of SE-ET-TP-020, Balb/c mice (n=5) were treated twice daily with 10 and 1000 μg/kg, respectively, SE-ET-TP-020 by subcutaneous injection. After 5 days, platelet count was measured in comparison to corresponding placebo experiments.

TPOR/4Rα hybrid receptor, sequence (P40238 26-491 limits assumed): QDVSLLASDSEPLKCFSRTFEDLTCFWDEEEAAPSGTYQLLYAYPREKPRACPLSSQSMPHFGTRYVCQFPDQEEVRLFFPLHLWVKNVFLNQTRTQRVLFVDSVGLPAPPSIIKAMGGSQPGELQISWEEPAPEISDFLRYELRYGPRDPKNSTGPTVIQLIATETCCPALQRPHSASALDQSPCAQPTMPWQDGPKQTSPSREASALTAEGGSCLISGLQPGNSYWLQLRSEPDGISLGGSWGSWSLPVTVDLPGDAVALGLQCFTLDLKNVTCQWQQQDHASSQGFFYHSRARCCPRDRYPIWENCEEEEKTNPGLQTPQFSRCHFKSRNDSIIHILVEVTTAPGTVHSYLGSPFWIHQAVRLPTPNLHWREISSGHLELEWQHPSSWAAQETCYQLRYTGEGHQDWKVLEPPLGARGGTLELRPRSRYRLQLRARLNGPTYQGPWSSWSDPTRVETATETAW

Substance | Inhibition of TPO receptor activation (TPO antagonist) (TPOR/4Rα hybrid receptor) | Platelet count versus placebo (platelet count)
GCVRLHESCLGQQVPCCDPAATCGGTALAiegptlrqwlaaraCKGS (GCVRLHESCLGQQVPCCDPAATCGGTALAIEGPTLRQWLAARACKGS) [SE-AG-TP-040] | able to act as TPO antagonists | –
GCVRLHESCLGQQVPCCDPAATCiegptlrqwlaaraCKGS (GCVRLHESCLGQQVPCCDPAATCIEGPTLRQWLAARACKGS) [SE-AG-TP-030] | able to act as TPO antagonists | –
GCiegptlrqwlaaCKQDSDCLAGCVCGPNGFCGS (GCIEGPTLRQWLAACKQDSDCLAGCVCGPNGFCGS) [SE-ET-TP-030] | able to act as TPO antagonists | –
GCiegptlrqwlaaraCKQDSDCLAGCVCGPNGFCGS (GCIEGPTLRQWLAARACKQDSDCLAGCVCGPNGFCGS) [SE-ET-TP-020] | able to act as TPO antagonists | doubling of the platelet count
iegptlrqwlaara (IEGPTLRQWLAARA) [SE-LN-TP-020, reference compound] | able to act as TPO antagonists | –
